Measurements from patent US6613718B2, “Aryl ether derivatives and processes for their preparation and herbicidal and desiccant compositions containing them” (Ishihara Sangyo Kaisha, Ltd., priority 2001, dated 2003).

Assays:
Type in all cases: in vivo
[1] = test system: field corn (Zea mays L., var. Dekalb 535, CORN); assay: Post-emerge greenhouse screening, crop safety / corn selectivity (phytotoxicity rating); details: for CORN crop damage, phytotoxicity rating (0-100 scale): 14 days after application
Method in brief: (§1)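 Plants grown in sandy loam pots received acetone solutions of compound by moving-nozzle track sprayer, 15–1000 g ai/ha. In post-emergence runs the foliage was at the 2-3 leaf stage and spray contained 0.25% v/v non-ionic surfactant. Damage was assessed visually after 14 days (0-100).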

[2] = test system: velvetleaf (Abutilon theophrasti, ABUTH); assay: Pre-emerge greenhouse herbicide activity screening, phytotoxicity rating; details: 14 days after application
Method in brief: as §1

[3] = test system: johnsongrass (Sorghum halepense, SORHA); assay: as above; details: 14 days after application
Method in brief: as §1

[4] = test system: common ragweed (Ambrosia artemisiifolia L., AMBEL); assay: as above; details: 14 days after application
Method in brief: as §1

[5] = test system: ivyleaf morningglory (Ipomoea hederacea, IPOHE); assay: as above; details: 14 days after application
Method in brief: as §1

[6] = test system: lambsquarters (Chenopodium album, CHEAL); assay: as above; details: 14 days after application
Method in brief: as §1

[7] = test system: sicklepod (Cassia obtusifolia, CASOB); assay: as above; details: 14 days after application
Method in brief: as §1

[8] = test system: redroot pigweed (Amaranthus retroflexus, AMARE); assay: as above; details: 14 days after application
Method in brief: as §1

[9] = test system: green foxtail (Setaria viridis, SETVI); assay: as above; details: 14 days after application
Method in brief: as §1

[10] = test system: large crabgrass (Digitaria sanguinalis, DIGSA); assay: as above; details: 14 days after application
Method in brief: as §1

[11] = test system: barnyardgrass (Echinochloa crus-galli, ECHCG); assay: as above; details: 14 days after application
Method in brief: as §1

[12] = test system: soybean (Glycine max L., var. Pella 86, SOY); assay: Post-emerge greenhouse screening, crop safety (phytotoxicity rating); details: 14 days after application
Method in brief: as §1

[13] = test system: upland rice (Oryza sp., var.Tebonnet, RICE); assay: as above; details: 14 days after application
Method in brief: as §1

[14] = test system: soybean (Glycine max L., var. Pella 86, SOY); assay: Pre-emerge greenhouse screening, crop safety (phytotoxicity rating); details: 14 days after application
Method in brief: as §1

[15] = test system: upland rice (Oryza sp., var.Tebonnet, RICE); assay: as above; details: 14 days after application
Method in brief: as §1

[16] = test system: field corn (Zea mays L., var. Dekalb 535, CORN); assay: as above; details: 14 days after application
Method in brief: as §1

[17] = test system: velvetleaf (Abutilon theophrasti, ABUTH); assay: Post-emerge greenhouse herbicide activity screening, phytotoxicity rating; details: 14 days after application
Method in brief: as §1

[18] = test system: johnsongrass (Sorghum halepense, SORHA); assay: as above; details: 14 days after application
Method in brief: as §1

[19] = test system: common ragweed (Ambrosia artemisiifolia L., AMBEL); assay: as above
Method in brief: as §1

[20] = test system: ivyleaf morningglory (Ipomoea hederacea, IPOHE); assay: as above; details: 14 days after application
Method in brief: as §1

[21] = test system: lambsquarters (Chenopodium album, CHEAL); assay: as above
Method in brief: as §1

[22] = test system: sicklepod (Cassia obtusifolia, CASOB); assay: as above
Method in brief: as §1

[23] = test system: redroot pigweed (Amaranthus retroflexus, AMARE); assay: as above
Method in brief: as §1

[24] = test system: green foxtail (Setaria viridis, SETVI); assay: as above
Method in brief: as §1

[25] = test system: large crabgrass (Digitaria sanguinalis, DIGSA); assay: as above; details: 14 days after application
Method in brief: as §1

[26] = test system: barnyardgrass (Echinochloa crus-galli, ECHCG); assay: as above; details: 14 days after application
Method in brief: as §1

[27] = 125 g ai/ha, 14 days after application
[28] = 250 g ai/ha, 14 days after application

Cn1c(=S)n(C)c(=O)n(-c2cc(Oc3ccccc3[N+](=O)[O-])c(Cl)cc2F)c1=O [Compound 2-17]
CORN selectivity, phytotoxicity rating (0-100 scale) ([1]; 62.5 g ai/ha): 3
CORN crop damage, phytotoxicity rating (0-100 scale) ([1]; 125 g ai/ha): 5
CORN crop damage, phytotoxicity rating (0-100 scale) ([1]; 250 g ai/ha): 8
ABUTH phytotoxicity rating (0-100 scale) ([2]; 125 g ai/ha): 60
ABUTH phytotoxicity rating (0-100 scale) ([2]; 250 g ai/ha): 70
SORHA phytotoxicity rating (0-100 scale) ([3]; 125 g ai/ha): 25
SORHA phytotoxicity rating (0-100 scale) ([3]; 250 g ai/ha): 50
AMBEL phytotoxicity rating (0-100 scale) ([4]; 125 g ai/ha): 0
AMBEL phytotoxicity rating (0-100 scale) ([4]; 250 g ai/ha): 0
IPOHE phytotoxicity rating (0-100 scale) ([5]; 125 g ai/ha): 30
IPOHE phytotoxicity rating (0-100 scale) ([5]; 250 g ai/ha): 50
CHEAL phytotoxicity rating (0-100 scale) ([6]; 125 g ai/ha): 100
CHEAL phytotoxicity rating (0-100 scale) ([6]; 250 g ai/ha): 100
CASOB phytotoxicity rating (0-100 scale) ([7]; 125 g ai/ha): 0
CASOB phytotoxicity rating (0-100 scale) ([7]; 250 g ai/ha): 30
AMARE phytotoxicity rating (0-100 scale) ([8]; 125 g ai/ha): 99
AMARE phytotoxicity rating (0-100 scale) ([8]; 250 g ai/ha): 100
SETVI phytotoxicity rating (0-100 scale) ([9]; 125 g ai/ha): 85
SETVI phytotoxicity rating (0-100 scale) ([9]; 250 g ai/ha): 98
DIGSA phytotoxicity rating (0-100 scale) ([10]; 125 g ai/ha): 60
DIGSA phytotoxicity rating (0-100 scale) ([10]; 250 g ai/ha): 80
ECHCG phytotoxicity rating (0-100 scale) ([11]; 125 g ai/ha): 30
ECHCG phytotoxicity rating (0-100 scale) ([11]; 250 g ai/ha): 30
SOY crop damage, phytotoxicity rating (0-100 scale) ([12]; 125 g ai/ha): 0
SOY crop damage, phytotoxicity rating (0-100 scale) ([12]; 250 g ai/ha): 25
RICE crop damage, phytotoxicity rating (0-100 scale) ([13]; 125 g ai/ha): 0
RICE crop damage, phytotoxicity rating (0-100 scale) ([13]; 250 g ai/ha): 0
SOY crop damage, phytotoxicity rating (0-100 scale) ([14]; 125 g ai/ha): 0
SOY crop damage, phytotoxicity rating (0-100 scale) ([14]; 250 g ai/ha): 10
RICE crop damage, phytotoxicity rating (0-100 scale) ([15]; 125 g ai/ha): 0
RICE crop damage, phytotoxicity rating (0-100 scale) ([15]; 250 g ai/ha): 0
CORN crop damage, phytotoxicity rating (0-100 scale) ([16]; 125 g ai/ha): 0
CORN crop damage, phytotoxicity rating (0-100 scale) ([16]; 250 g ai/ha): 0
ABUTH phytotoxicity rating (0-100 scale) ([17]; 125 g ai/ha): 95
ABUTH phytotoxicity rating (0-100 scale) ([17]; 250 g ai/ha): 98
SORHA phytotoxicity rating (0-100 scale) ([18]; 125 g ai/ha): 0
SORHA phytotoxicity rating (0-100 scale) ([18]; 250 g ai/ha): 0
AMBEL phytotoxicity rating (0-100 scale) ([19]; 31.3 g ai/ha): 50
AMBEL phytotoxicity rating (0-100 scale) ([19]; 62.5 g ai/ha): 50
AMBEL phytotoxicity rating (0-100 scale) [19, 27]: 60
AMBEL phytotoxicity rating (0-100 scale) [19, 28]: 75
IPOHE phytotoxicity rating (0-100 scale) ([20]; 125 g ai/ha): 0
IPOHE phytotoxicity rating (0-100 scale) ([20]; 250 g ai/ha): 0
CHEAL phytotoxicity rating (0-100 scale) ([21]; 31.3 g ai/ha): 90
CHEAL phytotoxicity rating (0-100 scale) ([21]; 62.5 g ai/ha): 90
CHEAL phytotoxicity rating (0-100 scale) [21, 27]: 95
CHEAL phytotoxicity rating (0-100 scale) [21, 28]: 95
CASOB phytotoxicity rating (0-100 scale) ([22]; 31.3 g ai/ha): 0
CASOB phytotoxicity rating (0-100 scale) ([22]; 62.5 g ai/ha): 0
CASOB phytotoxicity rating (0-100 scale) [22, 27]: 25
CASOB phytotoxicity rating (0-100 scale) [22, 28]: 65
AMARE phytotoxicity rating (0-100 scale) ([23]; 31.3 g ai/ha): 80
AMARE phytotoxicity rating (0-100 scale) ([23]; 62.5 g ai/ha): 80
AMARE phytotoxicity rating (0-100 scale) [23, 27]: 80
AMARE phytotoxicity rating (0-100 scale) [23, 28]: 80
SETVI phytotoxicity rating (0-100 scale) ([24]; 31.3 g ai/ha): 0
SETVI phytotoxicity rating (0-100 scale) ([24]; 62.5 g ai/ha): 0
SETVI phytotoxicity rating (0-100 scale) [24, 27]: 0
SETVI phytotoxicity rating (0-100 scale) [24, 28]: 0
DIGSA phytotoxicity rating (0-100 scale) ([25]; 125 g ai/ha): 0
DIGSA phytotoxicity rating (0-100 scale) ([25]; 250 g ai/ha): 35
ECHCG phytotoxicity rating (0-100 scale) ([26]; 125 g ai/ha): 0
ECHCG phytotoxicity rating (0-100 scale) ([26]; 250 g ai/ha): 25
